Each structure is given as a SMILES string.

Among the targets are Carbonic anhydrase 1 (Homo sapiens, UniProt P00915); Carbonic anhydrase 9 (Homo sapiens, UniProt Q16790); Carbonic anhydrase 7 (Homo sapiens, UniProt P43166).
The target in a further assay is Carbonic anhydrase 12 (Homo sapiens, UniProt O43570). The experiment in a line: Inhibition of human carbonic anhydrase 12 preincubated for 15 mins at pH 7.5 by stopped flow CO2 hydration method.
Another assay deals with T1, Carbonic anhydrase (Candida albicans (strain SC5314 / ATCC MYA-2876) (Yeast), UniProt Q5AJ71).
T1 sequence (Q5AJ71 whole entry): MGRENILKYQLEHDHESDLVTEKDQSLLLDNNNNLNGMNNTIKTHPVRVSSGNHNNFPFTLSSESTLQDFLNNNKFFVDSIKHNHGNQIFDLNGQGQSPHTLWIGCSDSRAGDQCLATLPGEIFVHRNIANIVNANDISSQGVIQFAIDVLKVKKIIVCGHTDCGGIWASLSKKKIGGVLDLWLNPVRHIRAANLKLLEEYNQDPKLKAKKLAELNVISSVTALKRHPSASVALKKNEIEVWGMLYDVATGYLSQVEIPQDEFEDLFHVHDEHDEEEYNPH

Another assay deals with Carbonic anhydrase 2 (Homo sapiens, UniProt P00918). The experiment in a line: Inhibition of human carbonic anhydrase 2 preincubated for 15 mins at pH 7.5 by stopped flow CO2 hydration method.

Sequence of Carbonic anhydrase 1 (P00915 whole entry): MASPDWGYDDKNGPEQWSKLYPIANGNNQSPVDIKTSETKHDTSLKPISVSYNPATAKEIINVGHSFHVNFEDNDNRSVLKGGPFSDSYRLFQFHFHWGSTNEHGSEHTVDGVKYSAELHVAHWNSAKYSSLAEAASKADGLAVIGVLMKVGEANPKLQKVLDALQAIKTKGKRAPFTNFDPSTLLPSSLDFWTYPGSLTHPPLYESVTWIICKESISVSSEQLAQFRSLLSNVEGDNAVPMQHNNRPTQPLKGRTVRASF
Sequence of Carbonic anhydrase 12 (O43570 whole entry): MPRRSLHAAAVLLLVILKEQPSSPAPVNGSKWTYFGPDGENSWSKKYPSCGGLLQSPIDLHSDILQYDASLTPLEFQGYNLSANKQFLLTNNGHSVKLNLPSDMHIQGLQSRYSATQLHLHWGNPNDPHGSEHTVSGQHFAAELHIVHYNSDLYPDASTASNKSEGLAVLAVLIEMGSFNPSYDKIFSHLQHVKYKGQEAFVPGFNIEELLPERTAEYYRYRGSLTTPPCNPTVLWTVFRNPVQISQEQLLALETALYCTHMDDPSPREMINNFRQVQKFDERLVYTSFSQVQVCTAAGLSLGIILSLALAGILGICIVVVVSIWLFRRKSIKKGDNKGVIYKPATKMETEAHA
Sequence of Carbonic anhydrase 7 (P43166 whole entry): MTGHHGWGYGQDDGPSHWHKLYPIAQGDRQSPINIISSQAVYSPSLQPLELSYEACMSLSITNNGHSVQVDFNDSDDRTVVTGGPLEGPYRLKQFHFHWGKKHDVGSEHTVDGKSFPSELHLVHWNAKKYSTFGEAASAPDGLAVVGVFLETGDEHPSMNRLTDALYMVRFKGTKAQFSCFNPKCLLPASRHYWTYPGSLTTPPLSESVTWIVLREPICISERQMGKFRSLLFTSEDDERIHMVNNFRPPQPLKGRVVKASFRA

As a reminder, the Ki is a dissociation constant, usually derived from enzyme kinetics or from competition with a known ligand. Lower therefore signals higher affinity. Turning to `CCN(CC)c1ccc2c(c1)Oc1cc(N(CC)CC)ccc1C21c2ccccc2C(=O)N1c1cccc(S(N)(=O)=O)c1`, the Ki on Carbonic anhydrase 1 came to 311 nM; at Carbonic anhydrase 12, 10.5 nM; on Carbonic anhydrase, 4100 nM; on Carbonic anhydrase 2, 21.5 nM; at Carbonic anhydrase 9, 24 nM; on Carbonic anhydrase 7, 12.1 nM.
Consider `CCN(CC)c1ccc2c(c1)Oc1cc(N(CC)CC)ccc1C21c2ccccc2C(=O)N1Cc1ccc(S(N)(=O)=O)cc1`, for which the Ki worked out at 714 nM on Carbonic anhydrase 1; 8.6 nM at Carbonic anhydrase 12; 5320 nM on Carbonic anhydrase; 980 nM on Carbonic anhydrase 2; 10.2 nM at Carbonic anhydrase 9; 34.9 nM at Carbonic anhydrase 7.
Take `CCN(CC)c1ccc2c(c1)Oc1cc(N(CC)CC)ccc1C21c2ccccc2C(=O)N1c1ccc(S(N)(=O)=O)cc1`: the Ki at Carbonic anhydrase 1 came out at 512 nM; at Carbonic anhydrase 12, 9.1 nM; at Carbonic anhydrase, 4990 nM; on Carbonic anhydrase 2, 279 nM; on Carbonic anhydrase 7, 60.2 nM.
Consider `CCN(CC)c1ccc2c(c1)Oc1cc(N(CC)CC)ccc1C21c2ccccc2C(=O)N1CCc1ccc(S(N)(=O)=O)cc1`, for which the Ki is 692 nM at Carbonic anhydrase 1; 25.3 nM on Carbonic anhydrase 12; 4730 nM at Carbonic anhydrase; 955 nM at Carbonic anhydrase 2; 19.4 nM on Carbonic anhydrase 9; 91.7 nM at Carbonic anhydrase 7.

These data come from ChEMBL document CHEMBL1821683, “Synthesis of rhodamine B-benzenesulfonamide conjugates and their inhibitory activity against human α- and bacterial/fungal β-carbonic anhydrases” (Bioorg Med Chem Lett, 2011).
